Measured values taken from paper PMC6934184, “Selective DNA-PKcs inhibition extends the therapeutic index of localized radiotherapy and chemotherapy” (The Journal of Clinical Investigation, 2019).

Target: T1, STK17A (DRAK1) (Homo sapiens, UniProt Q9UEE5)
T1 construct: purchased Thermo Fisher Scientific (Life Technologies) SelectScreen
Assay: SelectScreen LanthaScreen
Assay type: binding
Settings: read-out: % displacement
Method in brief: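 Percent values come from Thermo SelectScreen profiling of NU5455, combining activity and binding assays. CSF1R was run in Z'LYTE format at Km app ATP, and CAMK1 in Adapta format with ATP listed at 10.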

T1 sequence (Q9UEE5 whole entry): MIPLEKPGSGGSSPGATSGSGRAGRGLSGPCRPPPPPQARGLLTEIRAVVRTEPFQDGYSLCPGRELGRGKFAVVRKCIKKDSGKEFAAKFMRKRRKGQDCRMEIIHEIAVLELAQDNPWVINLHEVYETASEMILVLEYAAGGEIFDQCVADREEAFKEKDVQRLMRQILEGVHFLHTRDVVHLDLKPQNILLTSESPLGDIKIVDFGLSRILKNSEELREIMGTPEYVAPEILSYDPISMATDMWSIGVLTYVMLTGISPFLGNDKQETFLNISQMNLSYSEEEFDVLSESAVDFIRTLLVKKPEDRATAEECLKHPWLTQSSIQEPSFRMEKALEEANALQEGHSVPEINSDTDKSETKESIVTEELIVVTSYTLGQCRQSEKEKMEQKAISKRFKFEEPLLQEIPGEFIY

Structure (SMILES): CN(C(=O)CN1CCOCC1)c1ccc2sc3c(-c4cccc5c(=O)cc(N6CC7CCC(C6)O7)oc45)cccc3c2c1 [NU5455]
- inhibition at 1 µM: -6.6%
